Literature values as cited in US20190114390A1, “DRUG REPURPOSING BASED ON DEEP EMBEDDINGS OF GENE EXPRESSION PROFILES” (BioAge Labs, Inc., priority 2017, published 2019).

How the values were obtained:
[1] = known property
[2] = test system: imidazole I-2 receptors; conditions: known property

CN(C)C(=N)N=C(N)N [Metformin, metformin]
effect on glucose levels [1]: lower glucose levels | effect upon imidazole I-2 receptors [2]: direct inhibitory effect upon imidazole I-2 receptors

NC(=O)NC1NC(=O)NC1=O (stereo not shown) [allantoin]
effect on glucose levels [1]: lowers glucose levels | effect upon imidazole I-2 receptors [2]: direct inhibitory effect upon imidazole I-2 receptors
